These results are taken from patent publication US20110313044A1, “Polymorphs of Suberoylanilide Hydroxamic Acid” (URQUIMA S.A., priority 2010, published 2011).

Values after ≈ are worked out from the molar mass of the structure shown.

A short description of data set [1]: Physical stability of crystalline forms at room temperature (PXRD, DSC characterisation).
Text: The crystalline products obtained have been characterised by XPRD (FIG. 1 and Table 1) and DSC (FIG. 2).
A further data set in a line: physchem. The note with it: thermodynamic from solid.
A short description of data set [2]: Solubility test Form α vs Form I. The note with it: for solubility: thermodynamic from solid.
The nature of another data set: Hygroscopicity test. The class given is physicochemical.

Regarding `O=C(CCCCCCC(=O)Nc1ccccc1)NO` [Form II, suberoylanilide hydroxamic acid], the Polymorph stability entry in data set [1] is given as “unstable at room temperature”.

For the molecule `O=C(CCCCCCC(=O)Nc1ccccc1)NO` [Form I, suberoylanilide hydroxamic acid], the solubility amounted to 0.1 mg/mL (≈ 0.378 mM) in the data set “physchem” (aqueous buffer) and 21.8 mg/mL (≈ 82.5 mM) in the data set “physchem” (organic solvent or mixture).

Regarding `O=C(CCCCCCC(=O)Nc1ccccc1)NO` [Form α, suberoylanilide hydroxamic acid], the solubility came out at 0.19 mg/mL (≈ 0.719 mM) in data set [2] (HCl 2M, aqueous buffer) and 30 mg/mL (≈ 113 mM) in data set [2] (methanol, organic solvent or mixture). In addition, in data set [2] (methanol and HCl 2M, in words), the “Solubility versus Form I” value is on record as “higher solubility”. The Hygroscopicity result in the data set “Hygroscopicity test” is on record as “non-hygroscopic”. Further, the Polymorph stability entry in data set [1] is “stable at room temperature”.

Take `O=C(CCCCCCC(=O)Nc1ccccc1)NO` [Form III, suberoylanilide hydroxamic acid]: the Polymorph stability result in data set [1] is given as “stable at room temperature”.
